According to patent US20170095440A1, “METHOD OF TREATING CANINE PANCREATITIS” (CK9, LLC, priority 2014, published 2017):
“Also recorded” adds a separate entry of the source.

Legend:
[1] = system: dogs with suspected chronic pancreatitis; test: Serum C-reactive protein before and after treatment, clinical trial; assay type: in vivo, dog; details: for Change in serum C-reactive protein, pre- vs post-treatment: methanesulfonate
Procedure: (§1) Treatment effects on overall health status, quality of life, and clinical signs were also evaluated with serum biochemistry profiles, complete blood counts, and owner questionnaires.
(§2) Dogs were identified by screening current submissions to the Gastrointestinal Laboratory at Texas A&M indicative of pancreatitis (canine pancreas-specific lipase≧400 μg/L) using an immunoassay for measurement of canine pancreas-specific lipase in canine serum known as the spec CPL® Test (IDEXX, Laboratories). A number of potential study participants were directly referred to the investigator by veterinarians, based on positive pet-side SNAP cPL® Test (IDEXX Laboratories, Westbrook, Me., USA) results and concomitant clinical signs. After ascertaining individual suitability of a patient with the referring veterinarian, serum canine pancreas-specific lipase concentration, serum biochemistry profile, and complete blood count were evaluated or re-evaluated 12±4 days after collection of the initial sample submission to the Gastrointestinal Laboratory. Based on the assumption that consecutive canine pancreas-specific lipase elevations indicate chronic pancreatitis, enrollment was offered for patients with canine pancreas-specific lipase concentrations≧400 μg/L, serum triglyceride concentrations below 500 mg/dL, and no indication of hepatic, renal, or other organ disease. […] Owner consent was required prior to phlebotomy and for enrollment into the trial.
(§3) Twelve enrolled dogs received camostat capsules at a dosage of 4 mg/kg q 8 hrs, for a total dose of 12 mg/kg q 24 hrs. […] Individual patients were medicated for between 21 to 31 days.
Blood samples were collected before beginning the treatment and after completion of the treatment period. Complete blood count (red blood cell count, hematocrit, mean corpuscular volume, mean corpuscular hemoglobin, mean corpuscular hemoglobin concentration, differential and absolute white blood cell count, red blood cell count, hemoglobin, platelet estimate, red blood cell morphology, white blood cell morphology, and hemoparasites) was evaluated at the Texas Veterinary Medical Diagnostic Laboratory (TVMDL). A serum chemistry profile with electrolytes (glucose, blood urea nitrogen, creatinine, calcium, phosphorus, albumin, total protein, total bilirubin, alkaline phosphatase, alanine amino transferase, aspartate amino transferase, γ-glutamyl transferase, cholesterol, triglycerides, globuline, sodium, potassium, and chloride) was performed on a SIRRUS analyzer (Stanbio, Boerne, Tex., USA). […]
Pre-treatment and post-treatment results for all diagnostic tests were statistically analyzed using Prism 6 (GraphPad Software, La Jolla, Calif., USA). […]

[2] = system: dogs with suspected chronic pancreatitis; test: Serum TGF-β1 before and after treatment, clinical trial; assay type: in vivo, dog; details: for Change in serum TGF-β1, pre- vs post-treatment (paired t-test): methanesulfonate
Procedure: as §1, §2, §3
Blood samples were collected before beginning the treatment and after completion of the treatment period. Complete blood count (red blood cell count, hematocrit, mean corpuscular volume, mean corpuscular hemoglobin, mean corpuscular hemoglobin concentration, differential and absolute white blood cell count, red blood cell count, hemoglobin, platelet estimate, red blood cell morphology, white blood cell morphology, and hemoparasites) was evaluated at the Texas Veterinary Medical Diagnostic Laboratory (TVMDL). A serum chemistry profile with electrolytes (glucose, blood urea nitrogen, creatinine, calcium, phosphorus, albumin, total protein, total bilirubin, alkaline phosphatase, alanine amino transferase, aspartate amino transferase, γ-glutamyl transferase, cholesterol, triglycerides, globuline, sodium, potassium, and chloride) was performed on a SIRRUS analyzer (Stanbio, Boerne, Tex., USA). Serum concentrations of cPL (RI: 0-200 μg/L; Spec cPL® IDEXX Laboratories, Westbrook, Me., USA), cTLI (RI: 5.7-45.2 μg/L; Canine TLI DOUBLE ANTIBODY®, Siemens Healthcare Diagnostics, Los Angeles, Calif., USA), cobalamin (RI: 251-908 ng/L), and folate (RI: 7.7-24.4 μg/L; Immulite 2000®, Siemens Healthcare Diagnostics Inc., Deerfield, Ill., USA), canine specific C-reactive protein (RI: 0-7.6 mg/L, Tridelta Development Limited, Maynooth, CO. Kildare, Ireland), S100A12 (RI: 56-331 μg/L, Gastrointestinal Laboratory in-house radioimmunoassay), and TGF-β1 (RI: 38-72 ng/mL; Quantikine® ELISA, R&D Systems, Minneapolis, […]., USA) were performed at the Gastrointestinal Lab at Texas A&M University.
Pre-treatment and post-treatment results for all diagnostic tests were statistically analyzed using Prism 6 (GraphPad Software, La Jolla, Calif., USA). The D'Agostino-Pearson omnibus test was used to evaluate all datasets for Gaussian distribution. Groups were compared using a paired t-test for normally-distributed data sets and a Wilcoxon matched-pairs test when Gaussian distribution could not be assumed. Mean values and standard deviation are reported for data sets with Gaussian distribution. Median and minimum/maximum values are reported for data sets where Gaussian distribution could not be assumed. The significance threshold was set at p=0.05.

[3] = system: dogs with suspected chronic pancreatitis; test: Serum S100A12 before and after treatment, clinical trial; assay type: in vivo, dog; details: 8 mg/kg q 8 hrs, n=17
rat models = details: cited from earlier work
TGF-β1 = details: one published study, cited from earlier work
[4] = all treated dogs combined, n=29, trend towards a decrease

CN(C)C(=O)COC(=O)Cc1ccc(OC(=O)c2ccc(NC(=N)N)cc2)cc1 [Camostat Mesilate, N,N-dimethylcarbamoylmethyl-4-(4-guanidinobenzoyloxy)phenylacetate methanesulfonate]
Change in serum C-reactive protein, pre- vs post-treatment ([1]; 4 mg/kg q 8 hrs, n=12): no significant difference; also recorded: did not change significantly | Serum C-reactive protein concentration post-treatment (median) ([1]; 4 mg/kg q 8 hrs, n=12, pre-treatment median 0.8, post range 0.0-9.4, p=0.1543): 0.6 mg/L | Serum C-reactive protein concentration post-treatment (median) ([1]; all treated dogs combined, n=29, pre-treatment median 0.2, p=0.0595): 0.1 mg/L | Change in serum C-reactive protein, pre- vs post-treatment [1, 4]: no statistically significant difference; also recorded: did not lead to any significant changes | Change in serum TGF-β1, pre- vs post-treatment (paired t-test) ([2]; 4 mg/kg q 8 hrs, n=12): no significant difference; also recorded: did not change significantly | Serum TGF-β1 concentration post-treatment (mean) ([2]; 4 mg/kg q 8 hrs, n=12, pre-treatment mean 45, post SD ±8, p=0.3679): 43 ng/mL | Change in serum TGF-β1, pre- vs post-treatment (paired t-test) ([2]; 8 mg/kg q 8 hrs, n=17): no significant difference; also recorded: did not change significantly | Serum TGF-β1 concentration post-treatment (mean) ([2]; 8 mg/kg q 8 hrs, n=17, pre-treatment mean 47, post SD ±12, p=0.1686): 40 ng/mL | Serum TGF-β1 concentration post-treatment (mean) ([2]; all treated dogs combined, n=29, pre-treatment mean 46, post SD ±11, p=0.0986): 41 ng/mL | Change in serum TGF-β1, pre- vs post-treatment (paired t-test) [2, 4]: no statistically significant difference; also recorded: did not lead to any significant changes | Change in serum S100A12, pre- vs post-treatment ([3]; methanesulfonate): no significant difference; also recorded: did not change significantly | Serum S100A12 concentration post-treatment (median) ([3]; pre-treatment median 147, post range 58-746, p=0.8176): 148 µg/L | Fibrosis associated with chronic pancreatitis (rat models): suppress fibrosis | Microscopic signs of inflammation (rat models): markedly decrease microscopic signs of inflammation | Pro-inflammatory cytokine production (rat models): suppress pro-inflammatory cytokine production | Hepatic stellate cell activation and hepatic fibrosis (TGF-β1): attenuated hepatic stellate cell activation as well as hepatic fibrosis | Systemic or local side effects (TGF-β1): without entailing apparent systemic or local side effects | TGF-β1 concentrations (TGF-β1; methanesulfonate): decreased TGF-β1 concentrations; also recorded: suppressed
